Data: patent EP0326331B1, “Substituted quinolines and cinnolines” (Dow AgroSciences LLC, priority 1988, dated 1989)

Legend:
Assay type in all cases: in vivo
[1] = test system: southern armyworm (Spodopetra eridania Cramer); experiment: Mite/insect screen, SAW; conditions: Spodoptera eridania, percent mortality, SAW, read-out: SAW RESULTS %; for mortality at 200 ppm: SM & MA RATE 200 PPM; for mortality at 400 ppm: SM & MA RATE 400 PPM
Method in brief: (§1)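 Read-out: percent mortality after standard exposure periods. Test solutions were water dilutions of compound dissolved in acetone/alcohol (50:50) with emulsifier blends; leaves were sprayed to runoff on both surfaces and air-dried for one hour before exposure.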

[2] = test system: Twospotted spider mites (Tetranychus urticae Koch); experiment: Mite/insect screen, SM; conditions: percent mortality, SAW; for mortality at 200 ppm / mortality at 400 ppm: Tetranychus urticae, read-out: SM RESULTS %; for mortality at 400 ppm: SM & MA RATE 400 PPM
Method in brief: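 Foliar spray to runoff (10 psi), 1 h drying; aqueous dilutions from acetone/alcohol emulsifier stock. Mortality (%) after standard exposure.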

[3] = test system: Botrytis cinerea (gray mold); experiment: Test 1 greenhouse foliar spray screen, gray mold on grape berries; conditions: disease control rating, spray on grape berries, 400 ppm (+++ at 100 ppm)
[4] = test system: melon aphids (Aphis gossypii Glover); experiment: Mite/insect screen, MA; conditions: percent mortality, SAW; for mortality at 200 ppm / mortality at 400 ppm: Aphis gossypii, read-out: MA RESULTS %; for mortality at 400 ppm: SM & MA RATE 400 PPM
Method in brief: as §1

[5] = test system: Puccinia recondita tritici (leaf rust); experiment: Test 1 greenhouse foliar spray screen, leaf rust on wheat; conditions: disease control rating, foliar spray on wheat, 400 ppm (+++ at 100 ppm)
[6] = test system: corn rootworm; experiment: Mite/insect screen, CRW; conditions: percent mortality; for mortality at 12 ppm / mortality at 24 ppm: read-out: CRW RESULTS %; for mortality at 24 ppm: CRW RATE 24.00 PPM
Method in brief: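 Read-out: % mortality after standard exposure. Formulation: acetone/alcohol (50:50) with emulsifiers at 23 g and 13 g per liter, water-diluted to final test levels.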

[7] = test system: Cercospora beticola (leaf spot); experiment: Test 1 greenhouse foliar spray screen, leaf spot on sugar beet; conditions: disease control rating, foliar spray on sugar beet, 400 ppm (+++ at 100 ppm)
[8] = test system: Septoria tritici (leaf blotch); experiment: Test 1 greenhouse foliar spray screen, leaf blotch on wheat; conditions: disease control rating, foliar spray on wheat, 400 ppm (+++ at 100 ppm)
[9] = test system: Pyricularia oryzae (rice blast); experiment: whole plant or invertebrate; conditions: disease control rating, foliar spray on rice, 400 ppm (+++ at 100 ppm)
[10] = test system: Pseudoperonospora cubensis (downy mildew); experiment: Test 1 greenhouse foliar spray screen, downy mildew on squash; conditions: disease control rating, foliar spray on squash, 400 ppm (+++ at 100 ppm)
[11] = test system: Venturia inaequalis (apple scab); experiment: Test 1 greenhouse foliar spray screen, apple scab on apple seedling; conditions: disease control rating, foliar spray on apple seedling, 400 ppm (+++ at 100 ppm)
[12] = test system: Erysiphe graminis tritici (powdery mildew); experiment: Test 1 greenhouse foliar spray screen, powdery mildew on wheat; conditions: disease control rating, foliar spray on wheat, 400 ppm (+++ at 100 ppm)

| SMILES | mortality at 200 ppm [1] [%] | mortality at 200 ppm ([2]; SM & MA RATE 200 PPM) [%] | GRAY MOLD [3] | mortality at 200 ppm ([4]; SM & MA RATE 200 PPM) [%] | LEAF RUST [5] | mortality at 12 ppm ([6]; CRW RATE 12.00 PPM) [%] | LEAF SPOT [7] | LEAF BLOT [8] | RICE BLAST [9] | DOWN MDEW [10] | APPL SCAB [11] | POWD MDEW [12] | SM RESULTS % ([2]; SM & MA RATE 200 PPM) [%] | MA RESULTS % ([4]; SM & MA RATE 200 PPM) [%] | CRW RESULTS % ([6]; CRW RATE 12.00 PPM) [%] | mortality at 400 ppm [1] [%] | mortality at 400 ppm [2] [%] | mortality at 400 ppm [4] [%] | mortality at 24 ppm [6] [%] |
| --- | --- | --- | --- | --- | --- | --- | --- | --- | --- | --- | --- | --- | --- | --- | --- | --- | --- | --- | --- |
| CC(CNc1ccnc2c(F)cccc12)c1ccccc1 (stereo not drawn) [Example 77, 8-fluoro-N-(2-phenylpropyl)-4-quinolinamine] | 0 | 0 | - (0-19% control at 400 ppm) | 0 | ++ (90-100% control at 400 ppm) | 0 | - (0-19% control at 400 ppm) | - (0-19% control at 400 ppm) | + (20-89% control at 400 ppm) | +++ (90-100% control at 100 ppm) | + (20-89% control at 400 ppm) | + (20-89% control at 400 ppm) |  |  |  |  |  |  |  |
| Fc1ccc(CCNc2ccnc3c(F)cccc23)cc1 [Example 78, 8-fluoro-N-[2-(4-fluorophenyl)ethyl]-4-quinolinamine] | 20 | 0 | - (0-19% control at 400 ppm) | 0 | +++ (90-100% control at 100 ppm) | 0 | +++ (90-100% control at 100 ppm) | + (20-89% control at 400 ppm) | ++ (90-100% control at 400 ppm) | +++ (90-100% control at 100 ppm) | - (0-19% control at 400 ppm) | + (20-89% control at 400 ppm) | 0 | 0 | 0 |  |  |  |  |
| CC(CNc1ccnc2c(F)cccc12)(c1ccccc1)c1ccccc1 [Example 80, N-(2,2-diphenylpropyl)-8-fluoro-4-quinolinamine] | 0 | 0 | - (0-19% control at 400 ppm) | 0 | ++ (90-100% control at 400 ppm) | 0 | + (20-89% control at 400 ppm) | - (0-19% control at 400 ppm) | ++ (90-100% control at 400 ppm) | +++ (90-100% control at 100 ppm) | - (0-19% control at 400 ppm) | + (20-89% control at 400 ppm) |  |  |  |  |  |  |  |
| CCC(CNc1ccnc2c(F)cccc12)c1ccccc1 (stereo not drawn) [Example 81, 8-fluoro-N-(2-phenylbutyl)-4-quinolinamine] | 0 | 0 | - (0-19% control at 400 ppm) | 0 | ++ (90-100% control at 400 ppm) | 0 | + (20-89% control at 400 ppm) | - (0-19% control at 400 ppm) | ++ (90-100% control at 400 ppm) | +++ (90-100% control at 100 ppm) | - (0-19% control at 400 ppm) | + (20-89% control at 400 ppm) |  |  |  |  |  |  |  |
| Fc1cccc2c(NCCc3ccccc3Cl)ccnc12 [Example 82, N-[2-(2-chlorophenyl)ethyl]-8-fluoro-4-quinolinamine] | 0 | 0 | - (0-19% control at 400 ppm) | 0 | +++ (90-100% control at 100 ppm) | 0 | + (20-89% control at 400 ppm) | +++ (90-100% control at 100 ppm) | +++ (90-100% control at 100 ppm) | +++ (90-100% control at 100 ppm) | - (0-19% control at 400 ppm) | + (20-89% control at 400 ppm) |  |  |  |  |  |  |  |
| Fc1cccc2c(NCCc3ccc(C(F)(F)F)cc3)ccnc12 [Example 83, 8-fluoro-N-[2-[4-(trifluoromethyl)phenyl]ethyl]-4-quinolinamine] | 0 | 0 | +++ (90-100% control at 100 ppm) | 0 | +++ (90-100% control at 100 ppm) | 0 | + (20-89% control at 400 ppm) | - (0-19% control at 400 ppm) | ++ (90-100% control at 400 ppm) | ++ (90-100% control at 400 ppm) | - (0-19% control at 400 ppm) | + (20-89% control at 400 ppm) |  |  |  |  |  |  |  |
| COc1ccc(CCNc2ccnc3cc(Cl)ccc23)cc1 [Example 84, 7-chloro-N-[2-(4-methoxyphenyl)ethyl]-4-quinolinamine] | 10 | 0 | - (0-19% control at 400 ppm) | 0 | ++ (90-100% control at 400 ppm) | 0 | + (20-89% control at 400 ppm) | - (0-19% control at 400 ppm) | ++ (90-100% control at 400 ppm) | ++ (90-100% control at 400 ppm) | - (0-19% control at 400 ppm) | +++ (90-100% control at 100 ppm) |  |  |  | 0 | 0 | 0 | 0 |
| Cc1ccc(CCNc2ccnc3c(Cl)cccc23)cc1 [Example 87, 8-chloro-N-[2-(4-methylphenyl)ethyl]-4-quinolinamine] | 0 | 0 | - (0-19% control at 400 ppm) | 0 | + (20-89% control at 400 ppm) | 0 | - (0-19% control at 400 ppm) | - (0-19% control at 400 ppm) | - (0-19% control at 400 ppm) | +++ (90-100% control at 100 ppm) | - (0-19% control at 400 ppm) | - (0-19% control at 400 ppm) |  |  |  | 0 | 0 | 0 | 0 |
| Cc1ccc2c(NCCc3ccc(Cl)cc3)ccnc2c1C [Example 88, N-[2-(4-chlorophenyl)ethyl]-7,8-dimethyl-4-quinolinamine] | 0 | 0 | - (0-19% control at 400 ppm) | 0 | ++ (90-100% control at 400 ppm) | 0 | + (20-89% control at 400 ppm) | - (0-19% control at 400 ppm) | - (0-19% control at 400 ppm) | ++ (90-100% control at 400 ppm) | - (0-19% control at 400 ppm) | - (0-19% control at 400 ppm) |  |  |  | 0 | 0 | 0 | 0 |
| Fc1cccc2c(NCCc3ccccc3)c(Br)cnc12 [Example 91, 3-bromo-8-fluoro-N-(2-phenylethyl)-4-quinolinamine] | 0 | 0 | - (0-19% control at 400 ppm) | 0 | - (0-19% control at 400 ppm) | 0 | - (0-19% control at 400 ppm) | - (0-19% control at 400 ppm) | + (20-89% control at 400 ppm) | ++ (90-100% control at 400 ppm) | - (0-19% control at 400 ppm) | + (20-89% control at 400 ppm) |  |  |  |  |  |  |  |
| CC(Cc1ccccc1)Nc1ccnc2c(F)cccc12 (stereo not drawn) [Example 92, 8-fluoro-H-(1-methyl-2-phenylethyl)-4-quinolinamine] | 0 | 0 | - (0-19% control at 400 ppm) | 0 | +++ (90-100% control at 100 ppm) | 0 | + (20-89% control at 400 ppm) | +++ (90-100% control at 100 ppm) | ++ (90-100% control at 400 ppm) | ++ (90-100% control at 400 ppm) | - (0-19% control at 400 ppm) | + (20-89% control at 400 ppm) |  |  |  |  |  |  |  |
